In article PMC5848165 (Toxins, 2018):
Entries after “also recorded” stand apart in the source; their conditions may differ. Residues, ends and D or L forms follow the SMILES beside them.

Tested on: Nav1.5
Assay: Whole-cell patch clamp, WT Nav1.5 in HEK293 cells
Type: cell-based, rat
Conditions: 1 µM, −10 mV from −80 mV
Description: Nine sodium channel subtypes have been identified and classified as TTX-S (Nav1.1–Nav1.4, Nav1.6, and Nav1.7) or TTX-R types (Nav1.5, Nav1.8, and Nav1.9). […] However, the subtype selectivity of JZTX-34 on the subtype of sodium channel is still unknown. In this work, effects of JZTX-34 on VGSC subtypes (Nav1.1–Nav1.8) were examined. Nav1.1–Nav1.7 were transfected into HEK293 cells and Nav1.8 currents were expressed in ND cells. Inward sodium currents were elicited by a 50 ms depolarizing potential to −10 mV from a holding potential of −80 mV every 5 s. […] No effects on other sodium channel subtypes were found (Nav1.1, Nav1.2, Nav1.4–Nav1.6, and Nav1.8) (Figure S2). […]
The HEK293T cells were maintained in standard culture conditions (5% CO2 and 37 °C). […] After culturing for 36–72 h, cells with obvious green fluorescence were selected for sodium currents recordings the internal solution for sodium currents recording that contained (in mM) 140 CsF, 5 NaCl, 10 HEPES, 3 Na2-ATP, and 10 EGTA. […]
Sodium currents were recorded from DRG, HEK293, and ND cells by the whole-cell patch-clamp technique at 25 °C. […] Experiments date were acquired from whole-cell Axon 700B patch clamp amplifier (Molecular Devices, Sunnyvale, CA, USA) and analyzed by the program Clampfit10.0 (Molecular Devices, Sunnyvale, CA, USA) and Sigmaplot. […]

## CC(C)C[C@@H]1NC(=O)[C@H](Cc2c[nH]c3ccccc23)NC(=O)[C@H](CCC(=O)O)NC(=O)[C@H](CCCNC(=N)N)NC(=O)[C@@H](NC(=O)[C@H](C)N)CSSC[C@@H]2NC(=O)[C@@H]3CSSC[C@@H](C(=O)N[C@H](C(=O)N[C@@H](Cc4c[nH]c5ccccc45)C(=O)N[C@@H](CC(=O)O)C(=O)N[C@@H](Cc4c[nH]c5ccccc45)C(=O)N[C@H](C(=O)N[C@H](C(=O)O)C(C)C)[C@@H](C)O)C(C)C)NC(=O)[C@H](Cc4c[nH]cn4)NC(=O)[C@H](Cc4ccc(O)cc4)NC(=O)[C@@H]4CCCN4C(=O)[C@H](Cc4c[nH]c5ccccc45)NC(=O)[C@H](CCCCN)NC(=O)[C@H](CCCCN)NC(=O)[C@H](CCCNC(=N)N)NC(=O)[C@H](CSSC[C@H](NC(=O)CNC(=O)CNC1=O)C(=O)N[C@@H](CO)C(=O)N[C@@H](CCCCN)C(=O)N[C@@H](CC(=O)O)C(=O)N[C@@H](C)C(=O)N[C@@H](CC(=O)O)C(=O)N3)NC(=O)[C@H](CCC(=O)O)NC(=O)[C@H](CC(C)C)NC(=O)[C@H](Cc1c[nH]cn1)NC(=O)[C@H](C)NC2=O [JZTX-34, Jingzhaotoxin-34] (HELM PEPTIDE1{A.C.R.E.W.L.G.G.C.S.K.D.A.D.C.C.A.H.L.E.C.R.K.K.W.P.Y.H.C.V.W.D.W.T.V}$PEPTIDE1,PEPTIDE1,2:R3-16:R3|PEPTIDE1,PEPTIDE1,9:R3-21:R3|PEPTIDE1,PEPTIDE1,15:R3-29:R3$$$V2.0; N-terminus and C-terminus assumed)
  effect on Nav1.5 currents: No effects; also recorded: resistant
